Experimental data: patent publication US12459951B2, “Compounds that interact with RAS superfamily proteins for treatment of cancers, inflammatory diseases, rasopathies, and fibrotic disease” (SHY Therapeutics, LLC, priority 2022, dated 2025)
One block for each compound: values may come before it.

Experiments:
[1] = tested on: Smad2/Smad3 phosphorylation; assay: Phospho-Smad2/3 Inhibition Assay (western blot), Panc-1; assay type: cell-based, human; settings: at 10 μM, Panc-1 pancreatic cancer cell line; starred symbols = activation
Summary of the method: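 Western blotting of lysates (15-50 μg protein) read phosphorylation of Smad2 Ser465/467 and Smad3 Ser423/425. Before lysis, Panc-1 cells got 1 h of 10 ng/ml TGF-b1 following 3 h compound exposure at 37° C (10 μM final, or serial dilutions for IC50, 0.3% DMSO) after overnight 0.5% FBS starvation.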

[2] = tested on: KRas G12C mutant; assay: Ras GTP Binding Domain Inhibition Assay (Ras Superfamily Assay); settings: 20 μM compound; for KRas G12C mutant + SOS: % inh.: with SOS; for KRas G12C mutant: % inh.: without SOS
Summary of the method: (§1)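 Ni-plate capture of His-tagged protein (10-30 μg/mL, o/n 4° C); cpd 20 μM or dilution series, 1% DMSO, 3 h RT ± Sos 556-1049 last h; 100 nM Cy-labelled GTP 45 min RT; 3× wash; fluorescence read.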

[3] = tested on: KRas G12D mutant; assay: as above; settings: for KRas G12D mutant + SOS: % inh.: with SOS; for KRas G12D mutant: % inh.: without SOS
Summary of the method: as §1

[4] = tested on: KRas Q61H mutant; assay: as above; settings: 20 μM compound; for KRas Q61H mutant + SOS: % inh.: with SOS; for KRas Q61H mutant: % inh.: without SOS
Summary of the method: as §1

[5] = tested on: KRas wild type; assay: as above; settings: for KRas wild type + SOS: % inh.: with SOS; for KRas wild type: % inh.: without SOS
Summary of the method: as §1

[6] = molecular target: T1, Rac-1 (Homo sapiens, UniProt P63000); assay: as above; settings: read-out: Rac-1: % inh.
T1 construct: made in house
Summary of the method: as §1

[7] = molecular target: T2, Rho-A (Homo sapiens, UniProt P61586); assay: as above; settings: read-out: Rho-A: % inh..
T2 construct: made in house
Summary of the method: as §1

T2 sequence (P61586 whole entry): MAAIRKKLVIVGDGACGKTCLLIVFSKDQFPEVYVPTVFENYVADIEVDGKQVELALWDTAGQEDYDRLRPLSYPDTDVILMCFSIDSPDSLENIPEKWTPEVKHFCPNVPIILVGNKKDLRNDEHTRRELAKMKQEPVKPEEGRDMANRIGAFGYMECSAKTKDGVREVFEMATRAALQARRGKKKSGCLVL

Compound: CO[C@H]1CC[C@@H](Nc2nc(-c3nccn3C)nn3cc(-c4ccn(C(C)C)n4)c(C(C)C)c23)C1 (racemic) [Compound 36, rac 5-Isopropyl-6-(1-isopropyl-1H-pyrazol-3-yl)-N-((1R,3S)-3-methoxycyclopentyl)-2-(1-methyl-1H-imidazol-2-yl)pyrrolo[2,1-f][1,2,4]triazin-4-amine]
% inh of Smad2/3 phosphorylation in Panc-1 [1]: D (D = 76-100% inhibition)
KRas G12C mutant + SOS: % inh. [2]: 0 (0 = 0% inhibition)
KRas G12C mutant: % inh. [2]: A (A = 1-25% inhibition)
KRas G12D mutant + SOS: % inh. ([3]; 20 μM compound): A (A = 1-25% inhibition)
KRas G12D mutant: % inh. ([3]; 20 μM compound): A (A = 1-25% inhibition)
KRas Q61H mutant + SOS: % inh. [4]: A (A = 1-25% inhibition)
KRas Q61H mutant: % inh. [4]: A (A = 1-25% inhibition)
KRas wild type + SOS: % inh. ([5]; 20 μM compound): A (A = 1-25% inhibition)
KRas wild type: % inh. ([5]; 20 μM compound): 0 (0 = 0% inhibition)
inhibition at 20 µM [6]: 0%
inhibition at 20 µM [7]: 1 to 25%

Compound: COCCNc1nc(-c2nccn2C)nn2cc(-c3cccc(OC)c3Cl)c(-c3ccccc3)c12 [Compound 29, 6-(2-Chloro-3-methoxyphenyl)-N-(2-methoxyethyl)-2-(1-methyl-1H-imidazol-2-yl)-5-phenylpyrrolo[2,1-f][1,2,4]triazin-4-amine]
% inh of Smad2/3 phosphorylation in Panc-1 [1]: D (D = 76-100% inhibition)
KRas G12C mutant + SOS: % inh. [2]: A (A = 1-25% inhibition)
KRas G12C mutant: % inh. [2]: 0 (0 = 0% inhibition)
KRas G12D mutant + SOS: % inh. ([3]; 20 μM compound): A (A = 1-25% inhibition)
KRas G12D mutant: % inh. ([3]; 20 μM compound): 0 (0 = 0% inhibition)
KRas Q61H mutant + SOS: % inh. [4]: 0 (0 = 0% inhibition)
KRas Q61H mutant: % inh. [4]: 0 (0 = 0% inhibition)
KRas wild type + SOS: % inh. ([5]; 20 μM compound): 0 (0 = 0% inhibition)
KRas wild type: % inh. ([5]; 20 μM compound): A (A = 1-25% inhibition)
inhibition at 20 µM [6]: 0%
inhibition at 20 µM [7]: 1 to 25%

Compound: Cc1c(-c2ccn(C(C)C)n2)cn2nc(-c3nccn3C)nc(Nc3ccncn3)c12 [Compound 55, 6-(1-Isopropyl-1H-pyrazol-3-yl)-5-methyl-2-(1-methyl-1H-imidazol-2-yl)-N-(pyrimidin-4-yl)pyrrolo[2,1-f][1,2,4]triazin-4-amine]
% inh of Smad2/3 phosphorylation in Panc-1 [1]: D (D = 76-100% inhibition)
KRas G12C mutant + SOS: % inh. [2]: C (C = 50-75% inhibition)
KRas G12C mutant: % inh. [2]: B (B = 26-49% inhibition)
KRas G12D mutant + SOS: % inh. ([3]; 20 μM compound): C (C = 50-75% inhibition)
KRas G12D mutant: % inh. ([3]; 20 μM compound): D (D = 76-100% inhibition)
KRas Q61H mutant + SOS: % inh. [4]: D (D = 76-100% inhibition)
KRas Q61H mutant: % inh. [4]: D (D = 76-100% inhibition)
KRas wild type + SOS: % inh. ([5]; 20 μM compound): C (C = 50-75% inhibition)
KRas wild type: % inh. ([5]; 20 μM compound): D (D = 76-100% inhibition)
inhibition at 20 µM [6]: 76 to 100%
inhibition at 20 µM [7]: 76 to 100%

Compound: COc1cc(Nc2nc(-c3nccn3C)nn3cc(-c4ccn(C(C)C)n4)c(C)c23)n[nH]1 [Compound 51, 6-(1-Isopropyl-1H-pyrazol-3-yl)-N-(5-methoxy-1H-pyrazol-3-yl)-5-methyl-2-(1-methyl-1H-imidazol-2-yl)pyrrolo[2,1-f][1,2,4]triazin-4-amine]
% inh of Smad2/3 phosphorylation in Panc-1 [1]: D (D = 76-100% inhibition)
KRas G12C mutant + SOS: % inh. [2]: C (C = 50-75% inhibition)
KRas G12C mutant: % inh. [2]: C (C = 50-75% inhibition)
KRas G12D mutant + SOS: % inh. ([3]; 20 μM compound): C (C = 50-75% inhibition)
KRas G12D mutant: % inh. ([3]; 20 μM compound): D (D = 76-100% inhibition)
KRas wild type + SOS: % inh. ([5]; 20 μM compound): C (C = 50-75% inhibition)
KRas wild type: % inh. ([5]; 20 μM compound): D (D = 76-100% inhibition)
inhibition at 20 µM [6]: 76 to 100%
inhibition at 20 µM [7]: 76 to 100%

Compound: COc1ccc(F)c(-c2cn3nc(-c4nccn4C)nc(N[C@H]4C[C@H](OC)C4)c3c2-c2ccccc2)c1F [Compound 273, 6-(2,6-Difluoro-3-methoxyphenyl)-N-((1r,3r)-3-methoxycyclobutyl)-2-(1-methyl-1H-imidazol-2-yl)-5-phenylpyrrolo[2,1-f][1,2,4]triazin-4-amine]
% inh of Smad2/3 phosphorylation in Panc-1 [1]: D (D = 76-100% inhibition)
KRas G12D mutant + SOS: % inh. ([3]; at 20 μM): A (A = 1-25% inhibition)
KRas G12D mutant: % inh. ([3]; at 20 μM): B (B = 26-49% inhibition)
KRas wild type + SOS: % inh. ([5]; at 20 μM): A (A = 1-25% inhibition)
KRas wild type: % inh. ([5]; at 20 μM): 0 (0 = 0% inhibition)
inhibition at 20 µM [6]: 1 to 25%

Compound: Cc1c(-c2ccn(C)n2)cn2nc(-c3nccn3C)nc(-n3[nH]c(N)cc3=O)c12 [Compound 261, 5-Amino-2-(5-methyl-2-(1-methyl-1H-imidazol-2-yl)-6-(1-methyl-1H-pyrazol-3-yl)pyrrolo[2,1-f][1,2,4]triazin-4-yl)-1,2-dihydro-3H-pyrazol-3-one]
% inh of Smad2/3 phosphorylation in Panc-1 [1]: B* (B* = 26-45% activation)
KRas G12D mutant + SOS: % inh. ([3]; at 20 μM): C (C = 50-75% inhibition)
KRas G12D mutant: % inh. ([3]; at 20 μM): D (D = 76-100% inhibition)
KRas wild type + SOS: % inh. ([5]; at 20 μM): C (C = 50-75% inhibition)
KRas wild type: % inh. ([5]; at 20 μM): C (C = 50-75% inhibition)
inhibition at 20 µM [6]: 76 to 100%

Compound: COc1cccc(-c2cn3nc(-c4nccn4C)nc(N[C@@H]4CC[C@H]4OC)c3c2-c2ccccc2)c1C (racemic) [Compound 272, rac 6-(3-Methoxy-2-methylphenyl)-N-((1R,2R)-2-methoxycyclobutyl)-2-(1-methyl-1H-imidazol-2-yl)-5-phenylpyrrolo[2,1-f][1,2,4]triazin-4-amine]
% inh of Smad2/3 phosphorylation in Panc-1 [1]: D (D = 76-100% inhibition)
KRas G12D mutant + SOS: % inh. ([3]; at 20 μM): A (A = 1-25% inhibition)
KRas G12D mutant: % inh. ([3]; at 20 μM): C (C = 50-75% inhibition)
KRas wild type + SOS: % inh. ([5]; at 20 μM): 0 (0 = 0% inhibition)
KRas wild type: % inh. ([5]; at 20 μM): 0 (0 = 0% inhibition)
inhibition at 20 µM [6]: 1 to 25%

Compound: Cc1c(-c2ccn(C)n2)cn2nc(-c3nccn3C)nc(N3CCc4cc(C(F)(F)F)cnc43)c12 [Compound 251, 5-Methyl-2-(1-methyl-1H-imidazol-2-yl)-6-(1-methyl-1H-pyrazol-3-yl)-4-(5-(trifluoromethyl)-2,3-dihydro-1H-pyrrolo[2,3-b]pyridin-1-yl)pyrrolo[2,1-f][1,2,4]triazine]
% inh of Smad2/3 phosphorylation in Panc-1 [1]: A* (A* = 1-25% activation)
KRas G12D mutant + SOS: % inh. ([3]; at 20 μM): B (B = 26-49% inhibition)
KRas G12D mutant: % inh. ([3]; at 20 μM): C (C = 50-75% inhibition)
KRas wild type + SOS: % inh. ([5]; at 20 μM): A (A = 1-25% inhibition)
KRas wild type: % inh. ([5]; at 20 μM): B (B = 26-49% inhibition)
inhibition at 20 µM [6]: 26 to 49%

Second part, led by results:

KRas G12C mutant + SOS: % inh. [2]: A (A = 1-25% inhibition)
KRas G12C mutant: % inh. [2]: 0 (0 = 0% inhibition)
KRas G12D mutant + SOS: % inh. ([3]; 20 μM compound): A (A = 1-25% inhibition)
KRas G12D mutant: % inh. ([3]; 20 μM compound): A (A = 1-25% inhibition)
KRas wild type + SOS: % inh. ([5]; 20 μM compound): A (A = 1-25% inhibition)
KRas wild type: % inh. ([5]; 20 μM compound): 0 (0 = 0% inhibition)
inhibition at 20 µM [6]: 0%
inhibition at 20 µM [7]: 0%
Compound: Cc1c(-c2ccn(C(C)C)n2)cn2nc(-c3nccn3C)nc(Nc3ccncc3)c12 [Compound 52, 6-(1-Isopropyl-1H-pyrazol-3-yl)-5-methyl-2-(1-methyl-1H-imidazol-2-yl)-N-(pyridin-4-yl)pyrrolo[2,1-f][1,2,4]triazin-4-amine]
% inh of Smad2/3 phosphorylation in Panc-1 [1]: D (D = 76-100% inhibition)

KRas G12D mutant + SOS: % inh. ([3]; at 20 μM): D (D = 76-100% inhibition)
KRas G12D mutant: % inh. ([3]; at 20 μM): D (D = 76-100% inhibition)
KRas wild type + SOS: % inh. ([5]; at 20 μM): D (D = 76-100% inhibition)
KRas wild type: % inh. ([5]; at 20 μM): D (D = 76-100% inhibition)
inhibition at 20 µM [6]: 76 to 100%
Compound: COc1ccnc(Nc2nc(-c3nccn3C)nn3cc(-c4ccn(C)n4)c(C4CC4)c23)c1 [Compound 276, 5-Cyclopropyl-N-(4-methoxypyridin-2-yl)-2-(1-methyl-1H-imidazol-2-yl)-6-(1-methyl-1H-pyrazol-3-yl)pyrrolo[2,1-f][1,2,4]triazin-4-amine]
% inh of Smad2/3 phosphorylation in Panc-1 [1]: B (B = 26-45% inhibition)

inhibition at 20 µM [6]: 1 to 25%
inhibition at 20 µM [7]: 26 to 49%
Compound: COc1ccc(Nc2nc(-c3nccn3C)nn3cc(-c4ccn(C(C)C)n4)c(C)c23)nn1 [Compound 74, 6-(1-Isopropyl-1H-pyrazol-3-yl)-N-(6-methoxypyridazin-3-yl)-5-methyl-2-(1-methyl-1H-imidazol-2-yl)pyrrolo[2,1-f][1,2,4]triazin-4-amine]
% inh of Smad2/3 phosphorylation in Panc-1 [1]: A* (A* = 1-25% activation)

KRas G12D mutant + SOS: % inh. ([3]; at 20 μM): 0 (0 = 0% inhibition)
KRas G12D mutant: % inh. ([3]; at 20 μM): 0 (0 = 0% inhibition)
KRas wild type + SOS: % inh. ([5]; at 20 μM): 0 (0 = 0% inhibition)
KRas wild type: % inh. ([5]; at 20 μM): A (A = 1-25% inhibition)
inhibition at 20 µM [6]: 0%
Compound: Cc1c(-c2ccn(C)n2)cn2nc(-c3nccn3C)nc(Nc3cc(C(F)F)[nH]n3)c12 [Compound 258, N-(5-(Difluoromethyl)-1H-pyrazol-3-yl)-5-methyl-2-(1-methyl-1H-imidazol-2-yl)-6-(1-methyl-1H-pyrazol-3-yl)pyrrolo[2,1-f][1,2,4]triazin-4-amine]
% inh of Smad2/3 phosphorylation in Panc-1 [1]: A* (A* = 1-25% activation)
